Assay results from US20260015339A1, “CALIX[4]ARENES WITH HIGH ANTICANCER ACTIVITY” (UNIVERSITE GRENOBLE ALPES, priority 2023, published 2026).
In brackets after ≈: the same amount, converted by molar mass.

How the values were obtained:
[1] = Cu^+ transport into liposomes with encapsulated BCS; settings: POPC/cholesterol 7:3 LUVs, calix[4]arene to lipid 1:1000, 50 μM copper gradient, F/F0 after 600 s
Protocol: The ability of the examples of calix[4]arenes of the invention and the comparative examples to be delivered into a lipidic bilayer membrane of a liposome from a solution and their capacity to then act as a transporter of Cu^+ was evaluated using bathocuproine disulphonate (hereafter abbreviated “BCS”) encapsulated in large unilamellar vesicles (LUVs, also referred to as liposomes) composed of 1-palmitoyl-2-oleoyl-sn-glycero-3-phosphocholine and cholesterol in a 7:3 ratio.
BCS is a fluorescent water soluble phenantroline derivative that can be used as fluorescent dye for the sensing of Cu^+ through the formation of a non-fluorescent 2:1 complex.
Stock solution of lipids were prepared using deacidified CHCl3 and stored in a freezer. CHCl3 was deacidified by passing through activated basic alumina. The lipids used to prepare the liposomes were 2-oleoyl-1-palmitoyl-sn-glycero-3-phosphocholine (POPC), (purity ≥99%) and cholesterol (purity of 95%). 50 mM sodium phosphate buffer were prepared with Millipore water at pH 7 (±0.1) by mixing the solution of the mono- and the di-protonated phosphate salts. The solution of the dye (BCS) was prepared at 0.5 mM concentration in phosphate buffer.
The lipids solutions were mixed in different ratios in a 5 mL round bottom flask. The POPC/cholesterol molar ratio was 7:3 in all experiments. The total amount of lipids per batch varied depending on the amount of liposomes solution required for the experiment. After mixing the lipid solutions in a round bottom flask, the chloroform was evaporated under a gentle air flow and the resulting lipid film was dried at high vacuum for at least an hour. 500 μL of the BCS solution in phosphate buffer and a magnetic stir bar were added to the flask. The flask was then sonicated for 30 seconds and placed under magnetic agitation for at least an hour. The solution was frozen with liquid nitrogen and heated back to room temperature with warm water ten times to form large unilamellar vesicles (LUVs). The liposome solution was extruded 29 times, using an extrusion kit equipped with a membrane with 200 nm pores. Subsequently, the solution was eluted with the buffer solution used for the experiment through a size exclusion column (Sephadex G-25) to remove the external BCS and then diluted with phosphate buffer to obtain a concentration of 0.4 mM in lipids.
Solutions of the calix[4]arenes were prepared at a concentration of 0.24 mM in DMSO and 5 μL of the solution was added 2 minutes before each transport measurement.
Alternatively, calix[4]arenes were pre-incorporated by combining the calix[4]arene (dissolved in chloroform) with the lipids prior to the evaporation of the chloroform to obtain a lipid film. The concentrations and volumes were chosen to obtain a calix[4]arene to lipid of 1:1000.
Fluorescence measurements were performed with a Horiba FluoroMax 4 spectrometer using a 4-faced quartz cuvette (10 mm×10 mm). For the Cu^+ transport assay, the excitation was set at 278 nm and emission was recorded at 393 nm. These values correspond to the excitation and emission maxima of BCS encapsulated inside LUVs.
The Cu^+ solutions added to the liposomes were obtained by dissolving Cu(MeCN)4BF4 in MeCN at 15.25 mM concentration. The copper solution was then diluted by a factor 5 in a phosphate buffer during the first 30 seconds of the experiment to reach a copper concentration of 3.05 mM. 50 μL of the diluted copper solution was added to 3 mL of liposomes, resulting in a copper gradient of 50 μM. The fluorescence level was monitored for 600 seconds after the addition of the copper solution.
For each run the initial plateau and the initial vertical drop (due to the binding of the exterior dye with Cu^+ and the dilution, 1-4 seconds after the addition) were removed. Then the signal was normalised by dividing the fluorescence values (F) by the value at t=0 second (F0). […]

[2] = tested on: PC9 human lung cancer cells; assay: MTS cytotoxicity assay, combination with CuCl2, PC9; settings: Homo sapiens, 72 h, read-out: percentage of cell viability
Protocol: PC9 human lung cancer cells were seeded in 96-well plates together with the calix[4]arene of the formula (2) and CuCl2. Cells were grown in RPMI-1640 supplemented with GlutaMAX™ (Gibco™) and fetal calf serum (FCS, 10%) treated with a broad range of concentrations of the calix[4]arene of the formula (2) or/and CuCl2 from Merck. After 72 hours of treatment, the cytotoxicity was measured by means of the IC50 value, using the kit “CellTiter 96R AQuous One Solution Cell Proliferation Assay (MTS)” from Promega™. Following 30 minutes of incubation with the MTS reagent, the endpoint measurements were done in triplicate at 485 nm, using a fluorescence plate reader.

Escherichia coli = assay: Minimal inhibitory concentration, bacterial growth in 96 well plate; type: cell-based; settings: E. coli, with 100 μM CuSO4
Protocol: (§1) The efficiency of a compound of interest on a bacterial strain is evaluated by measuring its minimal inhibitory concentration (hereafter abbreviated “MIC”). MICs are measured by following the bacterial growth in a 96 wells plate exposed to a range of concentrations of the compound of interest.
(§2) A small amount of the frozen bacteria (stored at −80° C. in glycerol) was mixed in 25 mL of Lysogeny broth (i.e. a nutritionally rich medium used for the growth of bacteria which comprises 10 g of tryptone, 5 g of yeast extract, 10 g of NaCl, and 1 L of distilled water; with the pH adjusted to 7.0 with 1 N NaOH; and autoclaved for 25 min at 120° C.) in a falcon tube and then placed in an incubation chamber at 180 rpm and 37° C. After 16 to 24 hours, 25 mL of Lysogeny broth was added to the growth media and placed back in the incubation chamber for two hours. The absorption of the resulting solution was measured at 600 nm (hereafter abbreviated “OD600”) using Lysogeny broth as blank and then the solution was diluted to 0.1±0.01.
(§3) 96 Well plates were filled with 20 μL of 1 mM CuSO4 solution, then 160 μL of growth media was added. Finally, 20 μL of DMSO solutions containing a range of concentrations of the tested calix[4]arene of the formula (2) was added. […] For each condition three wells were used. The top and bottom rows were used as control, the top row only contained Lysogeny broth and the bottom one contained the growth media, DMSO and CuSO4. The plates were placed in the incubator for 16 to 24 hours. The absorbance of each well was measured at 600 nm with a multiplate reader (Fluostar from Optima).
(§4) The ratio between the average absorption value of three wells (OD) with the same conditions minus the average of the 12 negative controls (OD(negative)) and the average of the 12 positive control (OD(positive)) minus the negative control yielded the growth value which was subtracted from one and multiplied by a hundred to give the inhibition percentage (Equation 1).
(§5) The MIC50 or MIC90 is defined by the lowest concentration for which the inhibition value is at/over 50 or 90%. For a given experimental conditions three rows are used in a plate. The whole process was also repeated three times to obtain triplicates. MIC values were the determined by the average values obtained.

[3] = tested on: methicillin resistant Staphylococcus aureus; assay: as above; type: cell-based; settings: MRSA, with 100 μM CuSO4
Protocol: as §1, §2, §3, §4, §5

[4] = tested on: vancomycin resistant enterococcus; assay: as above; type: cell-based; settings: VRE, with 100 μM CuSO4
Protocol: as §1, §2, §3, §4, §5

Staphylococcus aureus = assay: as above; type: cell-based; settings: SA, with 100 μM CuSO4
Protocol: as §1, §2, §3, §4, §5

Non-malignant MSC cells = assay: MTS cytotoxicity assay on MSC; type: cell-based; settings: 72 hours of treatment
Protocol: After 72 hours of treatment, the cytotoxicity was measured by means of the IC50 value, using the kit “CellTiter 96R AQuous One Solution Cell Proliferation Assay (MTS)” from Promega™. Following 30 minutes of incubation with the MTS reagent, the endpoint measurements were done in triplicate at 485 nm, using a fluorescence plate reader.

CCCOc1c2cccc1Cc1cccc(c1OCc1nccn1C)Cc1cccc(c1OCCC)Cc1cccc(c1OCc1nccn1C)C2 [(2)]
Cu^+ transport [1]: Yes (means that a significant decrease of the fluorescence of encapsulated BCS was observed upon addition of Cu^+ to the liposomes (F/F0<0.65 after 600 s))
viability at 0.1 µM [2]: 99.9%
viability at 0.5 µM [2]: 93.1%
viability at 1 µM [2]: 75.8%
viability at 1.5 µM [2]: 24.4%
MIC50 (Escherichia coli): 0.8 µM (≈ 0.558 µg/mL)
MIC90 (Escherichia coli): 1.6 µM (≈ 1.12 µg/mL)
MIC50 [3]: 0.8 µM (≈ 0.558 µg/mL)
MIC90 [3]: 0.8 µM (≈ 0.558 µg/mL)
MIC50 [4]: 0.8 µM (≈ 0.558 µg/mL)
MIC90 [4]: 1.6 µM (≈ 1.12 µg/mL)
MIC50 (Staphylococcus aureus): 0.8 µM (≈ 0.558 µg/mL)
MIC90 (Staphylococcus aureus): 1.6 µM (≈ 1.12 µg/mL)
IC50 (Non-malignant MSC cells): 1010 nM
